Assays:
Assay type in all cases: in vivo
[1] = test system: Common Cutworm (Spodoptera litura); test: Insecticidal test on common cutworm (Test Example 2); conditions: cabbage leaf immersed about 30 seconds, second-instar larvae, counted eight days after inoculation, 25° C.; for Test Example 2: insecticidal effect (mortality criterion): 50 ppm; for mortality at 50 ppm: Spodoptera litura, 192 h, read-out: Test Example 2: insecticidal effect (mortality criterion)
Protocol: A piece of cabbage leaf (cultivar; Shikidori) was immersed for about 30 seconds in a liquid chemical prepared by diluting a preparation containing each compound listed in Tables 1 to 3 as an active ingredient to adjust the concentration to 50 ppm. After air-dryness, it was placed in a plastic Petri dish with a diameter of 9 cm and inoculated with second-instar larvae of common cutworm, after which the dish was closed and then allowed to stand in a room thermostatted at 25° C. Eight days after the inoculation, the dead and alive were counted. The mortality was calculated according to the following equation and the insecticidal effect was judged according to the criterion shown in Test Example 1. The test was carried out with triplicate groups of 10 insects.

[2] = test system: Smaller Tea Tortrix (Adoxophyes sp.); test: Insecticidal test on smaller tea tortrix (Test Example 3); conditions: 50 ppm; tea leaves immersed about 30 seconds; larvae; counted eight days after inoculation; 25° C., humidity 70%
Protocol: Tea leaves were immersed for about 30 seconds in a liquid chemical prepared by diluting a preparation containing each compound listed in Tables 1 to 3 as an active ingredient to adjust the concentration to 50 ppm. After air-dryness, the tea leaves were placed in a plastic Petri dish with a diameter of 9 cm and inoculated with larvae of smaller tea tortrix, after which the dish was allowed to stand in a room thermostatted at 25° C. and having a humidity of 70%. Eight days after the inoculation, the dead and alive larvae were counted and, the mortality was calculated according to the equation shown in Test Example 2, and the insecticidal effect was judged according to the criterion shown in Test Example 1. The test was carried out with triplicate groups of 10 insects.

[3] = test system: Diamond Back Moth (Plutella xylostella); test: Insecticidal test on diamond back moth (Test Example 1); conditions: Chinese cabbage seedling with eggs immersed about 30 seconds, hatched insects counted six days after immersion, 25° C.; for Test Example 1: insecticidal effect (mortality criterion): 50 ppm; for mortality at 50 ppm: Plutella xylostella, 144 h, read-out: Test Example 1: insecticidal effect (mortality criterion)
Protocol: Adult diamond back moths were released and allowed to oviposit on a Chinese cabbage seedling. Two days after the release, the seedling having the eggs deposited thereon was immersed for about 30 seconds in a liquid chemical prepared by diluting a preparation containing each compound listed in Tables 1 to 3 as an active ingredient to adjust the concentration to 50 ppm. After air-dryness, it was allowed to stand in a room thermostatted at 25° C. Six days after the immersion, the hatched insects were counted. The mortality was calculated according to the following equation and the insecticidal effect was judged according to the criterion shown below. The test was carried out with triplicate groups of 10 insects.

Compound	Test Example 2: insecticidal effect (mortality criterion) [1]	Test Example 3: insecticidal effect (mortality criterion) [2]	Test Example 1: insecticidal effect (mortality criterion) [3]	mortality at 50 ppm [1]	mortality at 50 ppm [3]
CSCC(C)NC(=O)c1c(I)cccc1C(=O)Nc1ccc(S(F)(F)(F)(F)F)cc1C (stereo not drawn) [1-290]	A (Mortality 100%)	A (Mortality 100%)	A (Mortality 100%)	–	–
Cc1cc(S(F)(F)(F)(F)F)ccc1NC(=O)c1cccc(I)c1C(=O)NC(C)CS(C)(=O)=O (stereo not drawn) [1-292]	A (Mortality 100%)	A (Mortality 100%)	A (Mortality 100%)	–	–
CSCC(C)(C)NC(=O)c1c(I)cccc1C(=O)Nc1ccc(S(F)(F)(F)(F)F)cc1C [1-296]	A (Mortality 100%)	A (Mortality 100%)	A (Mortality 100%)	–	–
Cc1cc(S(F)(F)(F)(F)F)ccc1NC(=O)c1cccc(I)c1C(=O)NC(C)(C)C[S+](C)[O-] (stereo not drawn) [1-297]	A (Mortality 100%)	A (Mortality 100%)	A (Mortality 100%)	–	–
Cc1cc(S(F)(F)(F)(F)F)ccc1NC(=O)c1cccc(I)c1C(=O)NC(C)(C)CS(C)(=O)=O [1-298]	A (Mortality 100%)	A (Mortality 100%)	A (Mortality 100%)	–	–
CSCC(C)(C)NC(=O)c1c(I)cccc1C(=O)Nc1ccc(S(F)(F)(F)(F)F)cc1Cl [1-372, N^1-(2-chloro-4-pentafluorosulfanylphenyl)-N^2-(1,1-dimethyl-2-methylthioethyl)-3-iodophthalamide]	–	A (Mortality 100%)	–	100%	100%
CC(C)(CS(C)(=O)=O)NC(=O)c1c(I)cccc1C(=O)Nc1ccc(S(F)(F)(F)(F)F)cc1Cl [1-374, N^1-(2-chloro-4-pentafluorosulfanylphenyl)-N^2-(1,1-dimethyl-2-methylsulfonylethyl)-3-iodophthalamide]	–	A (Mortality 100%)	–	100%	100%
CSCC(C)(C)NC(=O)c1c(I)cccc1C(=O)Nc1ccc(S(F)(F)(F)(F)F)cc1 [1-458]	A (Mortality 100%)	A (Mortality 100%)	A (Mortality 100%)	–	–
CCN(C(=O)c1cccc(I)c1C(=O)NC(C)(C)CSC)c1ccc(S(F)(F)(F)(F)F)cc1 [2-22]	A (Mortality 100%)	A (Mortality 100%)	A (Mortality 100%)	–	–
CCN(C(=O)c1cccc(I)c1C(=O)NC(C)(C)C[S+](C)[O-])c1ccc(S(F)(F)(F)(F)F)cc1 (stereo not drawn) [2-23]	A (Mortality 100%)	E (Mortality 49% or less)	A (Mortality 100%)	–	–
CCN(C(=O)c1cccc(I)c1C(=O)NC(C)(C)CS(C)(=O)=O)c1ccc(S(F)(F)(F)(F)F)cc1 [2-24]	A (Mortality 100%)	A (Mortality 100%)	A (Mortality 100%)	–	–
CSCC(C)(C)NC(=O)c1c(I)cccc1C(=O)Nc1cccc(S(F)(F)(F)(F)F)c1 [3-5]	E (Mortality 49% or less)	A (Mortality 100%)	A (Mortality 100%)	–	–
C[S+]([O-])CC(C)(C)NC(=O)c1c(I)cccc1C(=O)Nc1cccc(S(F)(F)(F)(F)F)c1 (stereo not drawn) [3-6]	D (Mortality 79–50%)	E (Mortality 49% or less)	A (Mortality 100%)	–	–
CC(C)(CS(C)(=O)=O)NC(=O)c1c(I)cccc1C(=O)Nc1cccc(S(F)(F)(F)(F)F)c1 [3-7]	A (Mortality 100%)	A (Mortality 100%)	A (Mortality 100%)	–	–
CSCC(C)(C)NC(=O)c1c(I)cccc1C(=O)Nc1cccc(S(F)(F)(F)(F)F)c1Cl [3-24]	A (Mortality 100%)	A (Mortality 100%)	A (Mortality 100%)	–	–
CC(C)(CS(C)(=O)=O)NC(=O)c1c(I)cccc1C(=O)Nc1cccc(S(F)(F)(F)(F)F)c1Cl [3-26]	A (Mortality 100%)	A (Mortality 100%)	A (Mortality 100%)	–	–

Reference: US7151195B2, “Phthalamide derivative, agricultural or horticultural insecticide, and method of use thereof” (Bayer CropScience LP, priority 2002, dated 2006)
